Results published in patent US20210108197A1, “SHRNA EXPRESSION CASSETTE, POLY[…] CARRYING SAME, AND APPLICATION THEREOF” (priority 2017, published 2021).

Experiments:
HBV [1] = test: In vivo pharmacodynamic experiment, HBsAg in serum; design: species or system HBV transgenic BALB/c; conditions: intravenous injection, LAM 150 mg/kg, ETV 3.2 mg/kg, intron2 3 × 10^10, intron5 1.5 × 10^11 vg/animal, relative, D 0 = 1
Protocol: (§1) Two drugs having two structures scAAV2/8-H1-shRNA2-intron2 and scAAV2/8-H1-shRNA2-intron5 were compared with the commercial drugs lamivudine and entecavir for evaluating in vivo efficacy. The administration mode was intravenous injection, and 14 days was a blood collection period. After separating serum samples, HBsAg and HBV DNA were detected. The grouping of animal experiments is shown as follows:
(§2) The experiment was conducted for total of […] (38 weeks). For the experimental method, see Example 2 “4. Expression and detection of target gene” The detection results are shown in FIG. 40 and Table 2-12 (BsAg detection), and FIG. 41 and Table 2-13 (BV DNA detection).

HBV [2] = test: In vivo pharmacodynamic experiment, HBV DNA in serum; design: species or system HBV transgenic BALB/c; conditions: intravenous injection, LAM 150 mg/kg, ETV 3.2 mg/kg, intron2 3 × 10^10, intron5 1.5 × 10^11 vg/animal, relative, D 0 = 1
Protocol: as §1, §2

With `C=C1[C@H](CO)[C@@H](O)C[C@@H]1n1cnc2c(=O)[nH]c(N)nc21` [ETV, Entecavir] as the compound, how does the “HBsAg detection in serum, D 0” value (HBV [1]) read?
Its value is 1.

And the “HBsAg detection in serum, D 14” value (HBV [1])?
The value was 1.51.

What about the “HBsAg detection in serum, D 28” value (HBV [1]) of the same compound?
The value was 1.55.

And the “HBsAg detection in serum, D 35” value (HBV [1])?
Its value is 1.8.

What about the “HBsAg detection in serum, D 49” value (HBV [1]) of the same compound?
Its value is 1.4.

What about the “HBsAg detection in serum, D 70” value (HBV [1]) of the same compound?
The value was 1.33.

What about the “HBsAg detection in serum, D 98” value (HBV [1]) of the same compound?
The value was 1.34.

What about the “HBsAg detection in serum, D 126” value (HBV [1]) of the same compound?
The value was 1.48.

And the “HBsAg detection in serum, D 154” value (HBV [1])?
The value was 0.75.

And the “HBsAg detection in serum, D 182” value (HBV [1])?
The value was 0.81.

What about the “HBsAg detection in serum, D 210” value (HBV [1]) of the same compound?
Its value is 1.57.

What about the “HBsAg detection in serum, D 238” value (HBV [1]) of the same compound?
Its value is 0.83.

And the “HBsAg detection in serum, D 266” value (HBV [1])?
Its value is 0.94.

And the “HBV DNA detection in serum, D 0” value (HBV [2])?
Its value is 1.

What about the “HBV DNA detection in serum, D 14” value (HBV [2]) of the same compound?
The value was 8.68.

What about the “HBV DNA detection in serum, D 28” value (HBV [2]) of the same compound?
The value was 1.24.

And the “HBV DNA detection in serum, D 35” value (HBV [2])?
The value was 1.08.

What about the “HBV DNA detection in serum, D 49” value (HBV [2]) of the same compound?
The value was 1.25.

What about the “HBV DNA detection in serum, D 70” value (HBV [2]) of the same compound?
The value was 3.93.

What about the “HBV DNA detection in serum, D 98” value (HBV [2]) of the same compound?
The value was 1.05.

What about the “HBV DNA detection in serum, D 126” value (HBV [2]) of the same compound?
The value was 0.72.

And the “HBV DNA detection in serum, D 154” value (HBV [2])?
The value was 1.06.

And the “HBV DNA detection in serum, D 182” value (HBV [2])?
The value was 3.33.

And the “HBV DNA detection in serum, D 210” value (HBV [2])?
Its value is 5.5.

What about the “HBV DNA detection in serum, D 238” value (HBV [2]) of the same compound?
Its value is 2.96.

What about the “HBV DNA detection in serum, D 266” value (HBV [2]) of the same compound?
Its value is 1.55.

For `Nc1ccn([C@@H]2CS[C@H](CO)O2)c(=O)n1` [LAM, Lamivudine], which “HBsAg detection in serum, D 0” value (HBV [1]) is on record?
Its value is 1.

What about the “HBsAg detection in serum, D 14” value (HBV [1]) of the same compound?
Its value is 0.98.

And the “HBsAg detection in serum, D 28” value (HBV [1])?
The value was 0.96.

What about the “HBsAg detection in serum, D 35” value (HBV [1]) of the same compound?
The value was 1.23.

And the “HBsAg detection in serum, D 49” value (HBV [1])?
Its value is 1.21.

And the “HBsAg detection in serum, D 70” value (HBV [1])?
The value was 1.01.

What about the “HBsAg detection in serum, D 98” value (HBV [1]) of the same compound?
The value was 1.19.

What about the “HBsAg detection in serum, D 126” value (HBV [1]) of the same compound?
The value was 1.46.

What about the “HBsAg detection in serum, D 154” value (HBV [1]) of the same compound?
The value was 0.66.

What about the “HBsAg detection in serum, D 182” value (HBV [1]) of the same compound?
Its value is 0.76.

And the “HBsAg detection in serum, D 210” value (HBV [1])?
The value was 1.16.

And the “HBsAg detection in serum, D 238” value (HBV [1])?
Its value is 0.5.

And the “HBsAg detection in serum, D 266” value (HBV [1])?
Its value is 0.54.

And the “HBV DNA detection in serum, D 0” value (HBV [2])?
Its value is 1.

What about the “HBV DNA detection in serum, D 14” value (HBV [2]) of the same compound?
Its value is 0.69.

What about the “HBV DNA detection in serum, D 28” value (HBV [2]) of the same compound?
Its value is 0.87.

What about the “HBV DNA detection in serum, D 35” value (HBV [2]) of the same compound?
The value was 0.72.

And the “HBV DNA detection in serum, D 49” value (HBV [2])?
The value was 0.68.

And the “HBV DNA detection in serum, D 70” value (HBV [2])?
The value was 1.26.

What about the “HBV DNA detection in serum, D 98” value (HBV [2]) of the same compound?
Its value is 0.41.

What about the “HBV DNA detection in serum, D 126” value (HBV [2]) of the same compound?
The value was 0.24.

What about the “HBV DNA detection in serum, D 154” value (HBV [2]) of the same compound?
Its value is 0.56.

What about the “HBV DNA detection in serum, D 182” value (HBV [2]) of the same compound?
Its value is 0.8.

What about the “HBV DNA detection in serum, D 210” value (HBV [2]) of the same compound?
The value was 0.28.

What about the “HBV DNA detection in serum, D 238” value (HBV [2]) of the same compound?
Its value is 0.26.

What about the “HBV DNA detection in serum, D 266” value (HBV [2]) of the same compound?
Its value is 0.07.
